One series has as its system human primary cells. Nature of the series: BioMap Plus phenotypic profiling in human primary cell-based systems. As to conditions: 30, 10, 3.3, 1.1 μM. How it is done: A series of in vitro assays was performed using human primary cell-based assays modeling complex tissue and disease biology of organs (vasculature, immune system, skin, lung) and general tissue biology for phenotypic profiling of compounds in conditions that preserve crosstalk and feedback mechanisms relevant to in vivo outcomes.

A further series is described as follows: physchem. The note with it: water.
Series [1] concerns thioglycolate-induced peritonitis. Nature of the series: Thioglycolate-induced peritonitis murine model. Type of series: in vivo, C57BL/6J mice. The note with it: 50 mg/kg i.p. 1 h prior to thioglycolate. How it is done: Therapeutic efficacy of the compounds of the present invention was assessed using thioglycolate-induced peritonitis murine models as described by Cook A D et al. (J Immunol. 2003; 171(9):4816-4823) and Tsai J M et al. (Blood Adv. 2019; 3(18):2713-2721. doi: 10.1182/bloodadvances.2018024026).
C57BL/6J mice were injected intraperitoneally (i.p.) with 1 mL of compounds at 50 mg/kg 1 h prior to the induction of peritonitis. Peritonitis was then induced with 1 ml of sterile thioglycolate broth 4% (wt/vol) or PBS as control. After 3 h, mice were anesthetized by i.p. injection with a solution of PBS containing 5 mg/ml ketamine and 1 mg/ml xylazine and peritoneal cavities were washed with 5 ml ice-cold sterile Ca2+/Mg2+-free HBSS 1×containing EDTA 2 mM. Peritoneal exudate cells (PECs) were centrifuged at 1200 rpm for 5 min at 4° C. and red cells lysed. PECs were washed, resuspended in PBS 10% FBS, incubated with anti-CD16/CD32 and mIgG FcR blockers and then stained with fluorescently conjugated antibodies to characterize migrated leukocytes (anti-CD45, anti-CD11b, anti-Ly6G, anti-CD8a, anti-CD4, anti-CD3). Cell viability was measured by 7-AAD exclusion. Specimens were acquired by flow cytometry using MACSQuant Analyzer (Miltenyi Biotec) and analysed using FlowJo software.
Animals: four C57BL/6J mice per group for each compound versus four vehicle treated mice.
Read out was done 1 h after thioglycolate injection.
Readout method: flow cytometry to characterise migrated leukocytes using anti-CD45, anti-CD11b, anti-Ly6G, anti-CD8a, anti-CD4, anti-CD3.
Results and statistical analysis: Results were analysed using FlowJo software. Data were shown as mean±SEM. Two-tailed Student's t test using a significance level of 0.05 is used for the statistical analysis.

For the next series, the system named is ARPE-19 cells. Nature of the series: Outer blood retinal barrier: ARPE-19 monolayer permeability to FITC-dextran. Type of series: cell-based, human. The note with it: for p < 0.05 (ARPE19 permeability versus diabetic milieu): IL-β, after 90 min. The text has this:
The mechanisms of actions involved in the anti-permeability effect of the tested treatments were explored by assessing permeability to fluorescent dextran and proinflammatory cytokines production using their mRNA expression levels by RT-PCR.
Outer Blood Retinal Barrier conditions: human retinal pigment epithelial cells (RPE) cultures ARPE-19, a spontaneously immortalised human RPE cell line were obtained from American Type Culture Collection (Manassas, Va., USA). ARPE-19 cells and they were cultured in euglycaemic conditions (D-glucose (D-Glc), 5.5 mmol/L) and hyperglycaemic conditions (D-glucose, 25 mmol/L) for 18 days at 37° C. under 5% (vol./vol.) CO2 in medium (DMEM/F12) supplemented with 10% (vol./vol.) FBS (Hyclone; Thermo Fisher Scientific, UT, USA) and 1% (vol./vol.) penicillin/streptomycin (Hyclone; Thermo Fisher Scientific). ARPE-19 cells from passage 20 were used and the medium changed every 3-4 days. For permeability studies, ARPE-19 cells were seeded at 400,000 cells/ml (80,000 RPE cells/well) in 0.33 cm^2 HTS-Transwells (Costar; Corning, N.Y., USA). For real-time PCR, western blot analysis and immunofluorescence cells are seeded at 20,000 cells/ml.
Experimental conditions and treatments: apart from the euglycemic condition, eighteen different conditions were tested in cells cultured under 25 mmol/L D-glucose:
Condition 2) Cells are treated with diabetic milieu 25 mM D-Glucose+vehicle (days 15, 16 and 17 at one application/day) in order to evaluate their effect in preventing the cell damage provoked by the diabetic milieu.
Condition 9) Cells were treated with 25 mM D-Glucose and bevacizumab (0.2 mg/ml) for 72 h (days 15, 16 and 17 at one application/day) to evaluate their potential cytotoxic effects.
Condition 10)=Diabetic milieu; cells were treated with 25 mM D-Glucose+[…] (10 ng/ml)+TNF-α (25 ng/ml)+VEGF (25 ng/ml), for 48 h (days 16 and 17 at one application/day) in order to provoke the disruption of the monolayer.
Condition 17) Cells are treated with diabetic milieu (25 mM D-Glucose+IL-1β (10 ng/ml)+TNF-α (25 ng/ml)+VEGF (25 ng/ml))+bevacizumab (0.2 mg/mL) (days 15, 16 and 17 at one application/day) in order to evaluate their effect in preventing the cell damage provoked by the diabetic milieu.
Measurement of ARPE-19 permeability: The permeability of RPE cells was determined at 18 days by measuring the apical-to basolateral movements of FITC-dextran (40 kDa) (Sigma, St Louis, […]., USA) following a procedure previously reported by Villarroel et al. Exp Eye Res, 2009, 89, 913-920.

Values after ≈ are worked out from the molar mass of the structure shown.

Broadly, the solubility is how much of the substance goes into solution per volume. The low end stands for little dissolved substance, the high end for much dissolved substance. Turning to `O=C(O)c1cc(NC(=O)c2cc(O)cc(C(=O)Nc3ccc(O)c(C(=O)O)c3)c2O)ccc1O` [IIc-007a, 5-(3-(3-carboxy-4-hydroxyphenylaminocarbonyl)-2,5-dihydroxybenzamido)-2-hydroxy benzoic acid], in the series with human primary cells, the “Antiproliferative effects on human primary cells” value is reported as “did not have any antiproliferative effects”; the “Cytotoxicity in BioMap Plus” value is “not cytotoxic”; the Immunomodulatory activities result is on record as “decreased sIL-10, sIL-2”; the Inflammation-related activities entry is “decreased sTNFα, MIP-1α; increased IL-8; modulated MCP-1”. Besides, in the series with human primary cells, the “Number of annotated readouts” value turned out to be 12 and the Tissue remodeling activities entry is recorded as “decreased Collagen I, Collagen IV, Collagen III, PAI-1”. In “physchem”, this molecule came in with a solubility of 1800 µg/mL (≈ 3.84 mM). For the same molecule, in series [1], the “% of reduction, CD4+ lymphocytes, treated over vehicle treated mice” value is listed as 40.0%; the “% of reduction, CD8+ lymphocytes, treated over vehicle treated mice” value amounted to 20.0%; the “% of reduction, Leukocytes (CD45+ cells), treated over vehicle treated mice” value came out at 11.8%; the “% of reduction, PMNs (CD11b-Ly6G double + cells), treated over vehicle treated mice” value was found to be 27.3%. The “% permeability ARPE19” value in the series with ARPE-19 cells (No 3-5: 25 mM D-Gluc + compound 25 μg/mL) worked out at 66.1 ± 4.9%. The “% permeability ARPE19” value in the series with ARPE-19 cells (No 6-8: 25 mM D-Gluc + compound 50 μg/mL + VEGF, TNF-α, (so in the source)) was found to be 113.1 ± 11.4%. Also, the “% permeability ARPE19” value in the series on ARPE-19 cells (No 11-13: 25 mM D-Gluc + compound 25 μg/mL + VEGF, TNF-α, (diabetic milieu)) is 114.7 ± 19.0%. For the same molecule, in the series on ARPE-19 cells (No 11-13: compound 25 μg/mL + VEGF, TNF-α), the “p < 0.05 (ARPE19 permeability versus diabetic milieu)” value was “* (* p < 0.05 for FITC dextran leakage measured after 90 min in [ng/mL/cm^2] in comparison with diabetic milieu (25 mM D-Gluose + VEGF, TNF-α, IL-β))”. Further, the “% permeability ARPE19” value with ARPE-19 cells (No 14-16: 25 mM D-Gluc + compound 50 μg/mL + VEGF, TNF-α, (diabetic milieu)) turned out to be 136.8 ± 13.0%. Further, the “p < 0.05 (ARPE19 permeability versus diabetic milieu)” value in the series with ARPE-19 cells (No 14-16: compound 50 μg/mL + VEGF, TNF-α) is “* (* p < 0.05 for FITC dextran leakage measured after 90 min in [ng/mL/cm^2] in comparison with diabetic milieu (25 mM D-Gluose + VEGF, TNF-α, IL-β))”.

For the origin of these results see patent US20230150951A1, “2,5- OR 2,6-DISUBSTITUTED HYDROQUINONE DERIVATIVES WITH AT LEAST ONE CARBOXY, SULFO OR AMIDO GROUP USEFUL AS MEDICAMENTS” (OM PHARMA SA, priority 2020, published 2023).
